# Laboratory results from BindingDB's records for doi:10.7270/Q2BV7F1T (Pcmd, 2008).
# pIC50: −log10 of the molar value.
# Molecular target: T1, DNA repair protein RAD51 homolog 1 (Homo sapiens, UniProt Q06609)
# T1 sequence (Q06609 whole entry): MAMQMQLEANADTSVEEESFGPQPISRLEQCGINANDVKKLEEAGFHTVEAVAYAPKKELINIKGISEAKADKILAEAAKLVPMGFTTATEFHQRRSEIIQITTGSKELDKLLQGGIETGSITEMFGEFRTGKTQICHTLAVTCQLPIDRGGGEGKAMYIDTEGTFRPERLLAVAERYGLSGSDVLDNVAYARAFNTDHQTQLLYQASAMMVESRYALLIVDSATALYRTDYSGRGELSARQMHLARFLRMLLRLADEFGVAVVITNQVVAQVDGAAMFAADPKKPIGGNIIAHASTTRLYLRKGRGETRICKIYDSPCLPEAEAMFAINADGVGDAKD
# Assay: concentration-dependent blocking of RAD51 activity – biochemical, homologous recombination, fluorescence, dose response (AID 1435)
# Details: not given
row,SMILES,pIC50
1,COC(=O)COc1ccc(S(=O)(=O)NCCC2=CCCCC2)cc1C [methyl [4-({[2-(1-cyclohexen-1-yl)ethyl]amino}sulfonyl)-2-methylphenoxy]acetate],< 4.07
2,"CC1CCCC(C)N1S(=O)(=O)c1ccc(NC(=O)CCn2cnc3ccccc3c2=O)cc1 (centres undefined) [N-[4-(2,6-dimethylpiperidin-1-yl)sulfonylphenyl]-3-(4-oxoquinazolin-3-yl)propanamide]",< 4.07
3,O=c1[nH]c(N2CCN(Cc3ccc4c(c3)OCO4)CC2)nc2c1CCC2 [MLS000100276],< 4.07
4,CC1=CC(C)C(COC(N)=O)(COC(N)=O)C(C)C1 (centres undefined),< 4.07
5,CCOC(=O)C(NC(C)=O)(Nc1ccc(S(=O)(=O)Nc2cc(C)on2)cc1)C(F)(F)F (centres undefined),< 4.07
6,CCC(=O)Nc1nc(=S)ss1,< 4.07
7,"O=C(c1ccc2ccccc2n1)N1CCN(c2ccccc2O)CC1 [Glucosamine derivative, 2]",< 4.07
8,CCCCCOCC1CC(CC(C)N=Nc2nc(-c3ccccc3)cs2)C(=O)O1 (centres undefined) [5-(amoxymethyl)-3-[2-[(4-phenylthiazol-2-yl)hydrazono]propyl]tetrahydrofuran-2-one],< 4.07
9,CCCCNC(=S)NNC(=O)C12CC3CC(CC(C3)C1)C2,< 4.07
10,O=c1cc(-c2ccccc2Cl)oc2ccc([N+](=O)[O-])c(O)c12 [2-(2-chlorophenyl)-5-hydroxy-6-nitrochromen-4-one],< 4.07
11,"COCCn1c(=NC(=O)CSC(C)=O)sc2cc(F)ccc21 [S-[2-[[6-fluoranyl-3-(2-methoxyethyl)-1,3-benzothiazol-2-ylidene]amino]-2-oxidanylidene-ethyl] ethanethioate]",< 4.07
12,"O=C(CSc1nnc(Cc2ccccc2)o1)N1CCc2ccccc21 [1-{[(5-benzyl-1,3,4-oxadiazol-2-yl)thio]acetyl}indoline]",< 4.07
13,"C=CCNc1oc(-c2ccc(OC)cc2)nc1C#N [2-(4-methoxyphenyl)-5-(prop-2-enylamino)-1,3-oxazole-4-carbonitrile]",< 4.07
14,CCOC(=O)C1CCN(C(=O)c2ccco2)CC1 [1-(2-furoyl)isonipecotic acid ethyl ester],< 4.07
15,"CCCOc1ccccc1N=C(NC(=O)COc1ccc(OC)cc1)Nc1nc(C)cc(C)n1 [N-{[(4,6-dimethyl-2-pyrimidinyl)amino][(2-propoxyphenyl)amino]methylene}-2-(4-methoxyphenoxy)acetamide]",< 4.07
16,"CCOC(=O)Cn1c(=O)c2c(nc(N3CCCCC3)n2Cc2ccccc2)n(C)c1=O [2-(7-benzyl-2,6-diketo-3-methyl-8-piperidino-purin-1-yl)acetic acid ethyl ester]",< 4.07
17,"O=C(CSCc1ccc(F)cc1)Nc1nc2c(s1)CCCC2 [2-[(4-fluorobenzyl)thio]-N-(4,5,6,7-tetrahydro-1,3-benzothiazol-2-yl)acetamide]",< 4.07
18,Cc1ccccc1NC(=O)NCC1CCCO1 (centres undefined) [1-(2-methylphenyl)-3-(oxolan-2-ylmethyl)urea],< 4.07
19,CCN(CC)S(=O)(=O)c1ccc2c(c1)nc(SC(C)C(N)=O)n2-c1ccc(OC)cc1 (centres undefined) [2-[5-(diethylsulfamoyl)-1-(4-methoxyphenyl)benzimidazol-2-yl]sulfanylpropanamide],4.46

row,SMILES,pIC50
1,CCOc1ccccc1C(=O)Nc1nccs1,< 4.07
2,COc1cc(CN2CCN(c3ccc(C)cc3)CC2)cc([N+](=O)[O-])c1O [2-methoxy-4-[[4-(4-methylphenyl)-1-piperazinyl]methyl]-6-nitrophenol],< 4.07
3,O=C(CSc1ncn(-c2ccccc2)n1)c1cccs1,< 4.07
4,"Cc1cc2nc3c(nc2cc1C)C1(C(=O)O)CCC3(C)C1(C)C (centres undefined) [6,7,12,15,15-pentamethyl-3,10-diazatetracyclo[10.2.1.0~2,11~.0~4,9~]pentadeca-2(11),3,5,7,9-pentaene-1-carboxylic acid]",4.43
5,Cc1[nH]nc2c1C(=O)CCC2,< 4.07
6,"FC(F)(F)c1nnc2ccc(N3CCCC3)nn12 [6-(1-pyrrolidinyl)-3-(trifluoromethyl)[1,2,4]triazolo[4,3-b]pyridazine]",< 4.07
7,Cc1ccc(C(=O)COc2cccc(NC(=O)c3ccco3)c2)cc1 [N-{3-[2-(4-methylphenyl)-2-oxoethoxy]phenyl}-2-furamide],< 4.07
8,O=S(=O)(Nc1ccc(O)c(CN2CCCCC2)c1)c1ccccc1 [N-[4-oxidanyl-3-(piperidin-1-ylmethyl)phenyl]benzenesulfonamide],< 4.07
9,"COc1cc(C)c2c(c1C=O)Oc1c(c(C)c(O)c3c1C(O)OC3=O)OC2=O (centres undefined) [1,4-Dihydroxy-10-methoxy-5,8-dimethyl-3,7-dioxo-1,3-dihydro-7H-benzo[e]furo[3',4':3,4]benzo[b][1,4]dioxepine-11-carbaldehyde]",5.06
10,COc1ccc(S(=O)(=O)NC(C)C(=O)Nc2ccccc2C(F)(F)F)cc1 (centres undefined),< 4.07
11,Cc1cc(C(=O)Nc2cccnc2)cs1 [5-methyl-N-pyridin-3-yl-thiophene-3-carboxamide],< 4.07
12,Cn1cc(NC(=O)c2cc(NC(=O)c3cc(NC=O)cn3C)cn2C)cc1C(=O)NCCC(=N)N,5.20
13,"CCOC(=O)C1(C(=O)OCC)CC1c1ccccc1 (centres undefined) [2-phenylcyclopropane-1,1-dicarboxylic acid diethyl ester]",< 4.07
14,"Cc1cc(O)c(C=O)c2c1C(=O)Oc1c(CO)c(O)c3c(c1O2)C(O)OC3=O (centres undefined) [1,4,10-Trihydroxy-5-hydroxymethyl-8-methyl-3,7-dioxo-1,3-dihydro-7H-benzo[e]furo[3'''',4'''':3,4]benzo[b][1,4]dioxepine-11-carbaldehyde]",5.10
15,CCOC(=O)C1CCCN(S(=O)(=O)c2ccc(OC)cc2)C1 (centres undefined) [1-(4-methoxyphenyl)sulfonyl-3-piperidinecarboxylic acid ethyl ester],< 4.07
16,"O=C(Nc1ccc(-c2nc3ccccc3o2)cc1)c1ccc2c(c1)OCO2 [N-[4-(1,3-benzoxazol-2-yl)phenyl]-1,3-benzodioxole-5-carboxamide]",< 4.07
17,"CC(C)CC(=O)/N=C(\N)Nc1nc2ccccc2s1 [N-[(E)-N''''-(1,3-benzothiazol-2-yl)carbamimidoyl]-3-methylbutanamide]",< 4.07
18,COC(=O)C(C=Nc1cccc(Cl)c1C)c1ncc(C(F)(F)F)cc1Cl (centres undefined) [methyl (Z)-3-(3-chloro-2-methylanilino)-2-[3-chloro-5-(trifluoromethyl)-2-pyridinyl]-2-propenoate],< 4.07

# Results, then the molecule that gave them:
row,pIC50,SMILES
1,< 4.07,CCC1(C)Nc2ccccc2C(=O)N1O (centres undefined) [SMR000024795]
2,< 4.07,O=C(CN(Cc1ccco1)C(=O)CCC(=O)Nc1nccs1)NCc1ccccc1 [SMR000117995]
3,< 4.07,Cc1onc(-c2c(Cl)cccc2Cl)c1C(=O)Nn1cnnc1 [SMR000009301]
4,< 4.07,Cc1cc(C)n(-c2nc3c(c(=O)[nH]c(=O)n3C)n2Cc2ccc(F)cc2)n1 [SMR000046638]
5,< 4.07,OC(COc1ccc2c(c1)CCC2)Cn1cnc2ccccc21 (centres undefined) [SMR000082144]
6,6.75,O=C1OCC2OC(O)C(O)C(O)C2OC(=O)c2cc(O)c(O)c(O)c2-c2c(O)c(O)c3oc(=O)c4c(c(O)c(O)c5oc(=O)c2c3c54)-c2c1cc(O)c(O)c2O (centres undefined) [SMR000445568]
7,< 4.07,CCC(CC)c1nnc(NS(=O)(=O)Cc2ccccc2)s1 [SMR000074911]
8,< 4.07,O=C(O)/C=C/c1cn(Cc2ccccc2)nc1-c1ccccc1 [MLS000567315]
9,< 4.07,CN1CCN(C(=O)c2ccc(S(=O)(=O)c3ccc(Br)cc3)cc2)CC1 [SMR000041005]
10,< 4.07,CN1CCN(C2=C(Cl)C(=O)N(Cc3ccccc3)C2=O)CC1 [MLS000030834]
11,< 4.07,CCOC(=O)C1CCN(CC(=O)Nc2c(C(=O)OC)n(C)c3cccc(C)c23)CC1 [SMR000046840]
12,5.26,COc1cc(C(=O)O)c2c(c1C)OC(=O)c1c(C)cc(O)c(C=O)c1O2 [NSC-92186]
13,< 4.07,COc1cccc2c1C(=O)c1c(O)c3c(c(O)c1C2=O)C[C@@](O)(C(=O)CO)C[C@@H]3O[C@H]1C[C@H](N)[C@H](O)[C@H](C)O1 [MLS000028393]

# Same assay, conditions: inactive by the depositor's call
row,SMILES,pIC50
1,"COC(=O)c1nc(N)sc1-c1ccccc1 [methyl 2-azanyl-5-phenyl-1,3-thiazole-4-carboxylate]",4.37
2,"O=P(OCC(F)(F)C(F)F)(N1CCOCC1)N1CCOCC1 [4-[morpholin-4-yl(2,2,3,3-tetrafluoropropoxy)phosphoryl]morpholine]",4.37
3,CCOC(=O)N1CCN(C(=O)CSCC(=O)N=c2sc3ccccc3n2C)CC1,4.37
4,"CCOC(=O)Cn1c(=O)c2c(nc(N3CCCCC3)n2Cc2ccccc2)n(C)c1=O [2-(7-benzyl-2,6-diketo-3-methyl-8-piperidino-purin-1-yl)acetic acid ethyl ester]",5.85
5,"COC(=O)c1cc2n(n1)CCN(Cc1ccc(F)cc1)C2=O [5-(4-fluorobenzyl)-4-keto-6,7-dihydropyrazolo[1,5-a]pyrazine-2-carboxylic acid methyl ester]",4.37
6,CCOc1ccc(OCC)c(NC(=O)C2CCN(c3ncccn3)CC2)c1,4.37
7,CCCCC(Nc1ncnc2ccccc12)C(=O)O (centres undefined) [2-(4-quinazolinylamino)hexanoic acid],4.37

# The remaining lines, values ahead:
row,pIC50,SMILES
1,4.37,CC1(C)CC(=O)C=C(NNC(=O)c2ccccc2O)C1 [SMR000185773]
2,4.37,COC(=O)CCC(=O)OC1(C)C(=O)C2=CN(C3CC3)C(c3ccc(OC)cc3)=CC2=C(Br)C1=O (centres undefined) [MLS000438679]
3,4.37,Cc1ccc(/C(C#N)=C\c2cn(C)c3ccccc23)cc1 [MLS000051428]
4,4.37,CCOC(=O)CN1C(=O)N[C@@H](CCc2ccccc2)[C@@H](C(=O)OC)[C@H]1C [CMLD004122]
5,4.37,O=C(CN1C(=O)c2ccccc2S1(=O)=O)Nc1ccc(S(=O)(=O)N2CCCCC2)cc1 [SMR000074755]
6,4.37,CC(=O)Nn1c(-c2ccccc2)cc2ccccc21 [MLS000082684]
7,4.37,O=C(CN1C(=O)C2CC=CCC2C1=O)Nc1nccs1 (centres undefined) [MLS000054855]
